From patent US5998476A, “Synthetic polyunsaturated fatty acid analogues” (Peptide Technology Limited, priority 1994, dated 1999)
Like-named read-outs stand apart in the source and are kept apart here.

What was measured:
[1] = test system: chloroquine-resistant P. falciparum strain K; assay: Inhibition of chloroquine-resistant P. falciparum strain K (direct anti-malarial activity); assay type: cell-based; conditions: All PUFA at 11μm
[2] = test system: peripheral blood mononuclear cells; assay: PHA-induced proliferation of peripheral blood mononuclear cells (thymidine incorporation); assay type: cell-based; conditions: Homo sapiens, PBMC, read-out: % INHIBITION OF PROLIFERATION
Method: Mononuclear cells were separated from peripheral blood of normal human donors as described by Ferrante and Thong (1978 . . . ). The mononuclear cells were resuspended in RPMI-1640 containing 20% human AB serum and placed into 96 well microtrays (50 μl per well, cell density 4×10^6 cells/ml). Fatty acid was then added in 50 μl and pre-incubated with the cells for 30 min at 37° C. in 5% CO2. Mitogen (PHA, ConA, PWM. Staph, Aureus) was then added in 100 μl and the cells incubated for 66 hours at 37° C. in 5% CO2 before the addition of tritiated thymnidine (1 μCi/well). After a total of 72 h in culture, the cells were harvested and proliferation (thymidine incorporation) and supernatants assayed for the presence of cytokines.

CCCCC/C=C\C/C=C\C/C=C\C/C=C\CCCC(=O)NCC(=O)O [arachidonic acid-glycine-OH, Arachidonic Acid-Glycine-OH]
% INHIBITION of P. falciparum [1]: 84.2% | inhibition at 20 µM [2]: 8%

CCCCC/C=C\C/C=C\C/C=C\CCCCC(=O)N[C@@H](CC(=O)O)C(=O)O [γ-linolenic acid-aspartic acid-OH, Gamma Linolenic-Aspartic Acid-OH]
inhibition at 20 µM ([2]; All PUFA at 20μM, PHA-induced): 7.3%

CC/C=C\C/C=C\C/C=C\CCCCCCCC(=O)N[C@@H](CC(=O)O)C(=O)O [α-linolenic acid-aspartic acid-OH, Linolenic Acid-Aspartic Acid-OH]
inhibition at 20 µM ([2]; All PUFA at 20μM, PHA-induced): 15.4%

CCCCC/C=C\C/C=C\C/C=C\C/C=C\CCCC(=O)N[C@@H](CC(=O)O)C(=O)O [arachidonic acid-aspartic acid-OH, Arachidonic-aspartic acid-OH]
inhibition at 20 µM [2]: 39.7%

CC/C=C\C/C=C\C/C=C\C/C=C\C/C=C\CCCC(=O)N[C@@H](CC(=O)O)C(=O)O [eicosapentaenoic acid-aspartic acid-OH, Eicosapentaenoic acid-aspartic acid-OH]
inhibition at 20 µM ([2]; All PUFA at 20μM, PHA-induced): 20.7%

CCN(CC)CCCC(C)Nc1ccnc2cc(Cl)ccc12 (centres unmarked) [Chloroquine, reference compound]
% INHIBITION of P. falciparum [1]: 20.1%

CC/C=C\C/C=C\C/C=C\CCCCCCCC(=O)NCC(=O)O [α-linolenic acid-glycine-OH, Linolenic Acid-Glycine-OH]
% INHIBITION of P. falciparum [1]: 81.5% | inhibition at 20 µM ([2]; All PUFA at 20μM, PHA-induced): 29%

CC/C=C\C/C=C\C/C=C\C/C=C\C/C=C\C/C=C\CCC(=O)NCC(=O)O [docosahexaenoic acid-glycine-OH, Docosahexaenoic acid-glycine-OH]
% INHIBITION of P. falciparum [1]: 84.9% | inhibition at 20 µM ([2]; All PUFA at 20μM, PHA-induced): 16.6%

CC/C=C\C/C=C\C/C=C\C/C=C\C/C=C\C/C=C\CCC(=O)N[C@@H](CC(=O)O)C(=O)O [docosahexaenoic acid-aspartic acid-OH, Docosahexaenoic Acid-Aspartic Acid-OH]
inhibition at 20 µM ([2]; All PUFA at 20μM, PHA-induced): 21.1%

CCCCC/C=C\C/C=C\C/C=C\CCCCC(=O)NCC(=O)O [γ-linolenic acid-glycine-OH, Gamma Linolenic Acid-Glycine-OH]
inhibition at 20 µM ([2]; All PUFA at 20μM, PHA-induced): 15.6%

CC/C=C\C/C=C\C/C=C\C/C=C\C/C=C\CCCC(=O)NCC(=O)O [eicosapentaenoic acid-glycine-OH, Eicosapentaenoic acid-glycine-OH]
inhibition at 20 µM ([2]; All PUFA at 20μM, PHA-induced): 5.4%
